Results from patent US20240066027A1 (DOMAIN THERAPEUTICS, priority 2020, published 2024).
Where a name gives a salt, the structure may show the parent alone.

Biological target: T1, human PAR-2 (hPAR-2) receptor expressed in HEK-293 T cells in an endogenous manner (Homo sapiens, UniProt P55085)
T1 construct: human PAR-2 (hPAR-2) receptor expressed in HEK-293 T cells in an endogenous manner; endogenous in cells; host or cells: HEK-293 T cells
T1 sequence (P55085 26-397): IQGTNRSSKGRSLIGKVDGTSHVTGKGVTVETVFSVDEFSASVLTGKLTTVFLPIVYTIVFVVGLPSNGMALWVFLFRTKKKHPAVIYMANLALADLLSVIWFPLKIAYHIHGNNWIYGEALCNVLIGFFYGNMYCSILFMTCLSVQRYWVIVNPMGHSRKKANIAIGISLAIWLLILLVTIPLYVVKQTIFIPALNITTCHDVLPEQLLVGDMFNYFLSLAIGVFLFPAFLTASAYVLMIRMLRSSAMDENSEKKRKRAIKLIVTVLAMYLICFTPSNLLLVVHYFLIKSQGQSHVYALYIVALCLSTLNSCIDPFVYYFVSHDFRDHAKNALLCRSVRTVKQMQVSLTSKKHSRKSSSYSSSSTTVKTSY
Test: In vitro human PAR-2 functional antagonist activity using calcium assays (Fluo4AM, FLIPR Tetra)
Type: cell-based
Settings: HEK-293 T cells stimulated by an EC80 of the 2-Furoyl-LIGRLO-NH2 peptide after 10 min incubation with compound; 20 concentrations, duplicate, two independent experiments
Procedure, shortened: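 Antagonist activity was taken as the decrease in the calcium response to an EC80 of 2-Furoyl-LIGRLO-NH2, measured over 5 min. The agonist was added after a 10 min compound-alone step on the same plate. The HEK-293 T cells express PAR-2 endogenously and were loaded with 1 μM Fluo4AM. Signals were referenced to buffer and EC80-alone controls.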

IC50 [µM]	SMILES
< 0.02	Cc1cc(N2CCN(C(=O)c3ccc4c(-c5ccc(Cl)c(F)c5)cn(C(C)C)c4n3)C(C)(C)C2)nc(C)c1C(=O)O [Example 97, 6-(4-(3-(4-chloro-3-fluorophenyl)-1-isopropyl-1H-pyrrolo[2,3-b]pyridine-6-carbonyl)-3,3-dimethylpiperazin-1-yl)-2,4-dimethyinicotinic acid]
< 0.02	Cc1cc(N2CCN(C(=O)c3ccc4c(-c5ccc(Cl)c(F)c5)cn(C5CCOCC5)c4n3)C(C)(C)C2)nc(C)c1C(=O)O [Example 98]
< 0.02	Cc1cc(N2CCN(C(=O)c3ccc4c(-c5ccc(Cl)c(F)c5)cn(C(C)(C)C)c4n3)CC2)nc(C)c1C(=O)O [Example 99, 6-(4-(1-(tert-butyl)-3-(4-chloro-3-fluorophenyl)-1H-pyrrolo[2,3-b]pyridine-6-carbonyl)piperazin-1-yl)-2,4-dimethylnicotinic acid]
0.02 to 10	Cc1cc(NC2CCN(C(=O)c3ccc4c(-c5ccc(Cl)c(F)c5)cn(C(C)(C)C)c4n3)CC2)nc(C)c1C(=O)O [Example 100, 6-((1-(1-(tert-butyl)-3-(4-chloro-3-fluorophenyl)-1H-pyrrolo[2,3-b]pyridine-6-carbonyl)piperidin-4-yl)amino)-2,4-dimethylnicotinic acid]
0.02 to 10	Cc1cc(N2CC3CN(C(=O)c4ccc5c(-c6ccc(Cl)c(F)c6)cn(C(C)(C)C)c5n4)C3C2)nc(C)c1C(=O)O (stereo not shown) [Example 101, 6-(6-(1-(tert-butyl)-3-(4-chloro-3-fluorophenyl)-1H-pyrrolo[2,3-b]pyridine-6-carbonyl)-3,6-diazabicyclo[3.2.0]heptan-3-yl)-2,4-dimethylnicotinic acid]
0.02 to 10	Cc1cc(N2CCN(C(=O)c3ccc4c(-c5ccc(Cl)c(F)c5)cn(C(C)(C)CO)c4n3)C(C)(C)C2)nc(C)c1C(=O)O [Example 102, 6-(4-(3-(4-chloro-3-fluorophenyl)-1-(1-hydroxy-2-methylpropan-2-yl)-1H-pyrrolo[2,3-b]pyridine-6-carbonyl)-3,3-dimethylpiperazin-1-yl)-2,4-dimethylnicotinic acid]
0.02 to 10	Cc1cc(N2CCN(C(=O)c3ccc4c(-c5ccc(Cl)c(F)c5)cn(Cc5cnccn5)c4n3)C(C)(C)C2)nc(C)c1C(=O)O [Example 103, 6-(4-(3-(4-chloro-3-fluorophenyl)-1-(pyrazin-2-ylmethyl)-1H-pyrrolo[2,3-b]pyridine-6-carbonyl)-3,3-dimethylpiperazin-1-yl)-2,4-dimethylnicotinic acid]
< 0.02	Cc1cc(N2CCN(C(=O)c3ccc4c(-c5ccc(Cl)c(F)c5)c(C)n(CC(C)C)c4n3)C(C)(C)C2)nc(C)c1C(=O)O [Example 104, 6-(4-(3-(4-chloro-3-fluorophenyl)-1-isobutyl-2-methyl-1H-pyrrolo[2,3-b]pyridine-6-carbonyl)-3,3-dimethylpiperazin-1-yl)-2,4-dimethylnicotinic acid]
0.02 to 10	COc1ccc(-c2cn(CC(C)C)c3nc(C(=O)N4CCNC(=O)C4(C)C)ccc23)cn1 [Example 105, 4-(1-isobutyl-3-(6-methoxypyridin-3-yl)-1H-pyrrolo[2,3-b]pyridine-6-carbonyl)-3,3-dimethylpiperazin-2-one]
0.02 to 10	CC(C)Cn1cc(-c2ccc(C#N)cc2)c2ccc(C(=O)N3CCNC(=O)C3(C)C)nc21 [Example 106, 4-(6-(2,2-dimethyl-3-oxopiperazine-1-carbonyl)-1-isobutyl-1H-pyrrolo[2,3-b]pyridin-3-yl)benzonitrile]
< 0.02	CC(C)Cn1cc(-c2ccc(Cl)c(Cl)c2)c2ccc(C(=O)N3CCNC(=O)C3(C)C)nc21 [Example 107, 4-(3-(3,4-dichlorophenyl)-1-isobutyl-1H-pyrrolo[2,3-b]pyridine-6-carbonyl)-3,3-dimethylpiperazin-2-one]
0.02 to 10	CC(C)Cn1cc(-c2ccccc2OC(F)(F)F)c2ccc(C(=O)N3CCNC(=O)C3(C)C)nc21 [Example 112, 4-(1-isobutyl-3-(2-(trifluoromethoxy)phenyl)-1H-pyrrolo[2,3-b]pyridine-6-carbonyl)-3,3-dimethylpiperazin-2-one]
0.02 to 10	CC(C)Cn1cc(-c2ccccc2F)c2ccc(C(=O)N3CCNC(=O)C3(C)C)nc21 [Example 113, 4-(3-(2-fluorophenyl)-1-isobutyl-1H-pyrrolo[2,3-b]pyridine-6-carbonyl)-3,3-dimethylpiperazin-2-one]
0.02 to 10	CC(C)Cn1cc(-c2cccc(F)c2)c2ccc(C(=O)N3CCNC(=O)C3(C)C)nc21 [Example 114, 4-(3-(3-fluorophenyl)-1-isobutyl-1H-pyrrolo[2,3-b]pyridine-6-carbonyl)-3,3-dimethylpiperazin-2-one]
0.02 to 10	CC(C)Cn1cc(-c2ccc(Cl)cc2F)c2ccc(C(=O)N3CCNC(=O)C3(C)C)nc21 [Example 115, 4-(3-(4-chloro-2-fluorophenyl)-1-isobutyl-1H-pyrrolo[2,3-b]pyridine-6-carbonyl)-3,3-dimethylpiperazin-2-one]
0.02 to 10	CC(C)Cn1cc(-c2ccc(OC(F)(F)F)cc2)c2ccc(C(=O)N3CCNC(=O)C3(C)C)nc21 [Example 116, 4-(1-isobutyl-3-(4-(trifluoromethoxy)phenyl)-1H-pyrrolo[2,3-b]pyridine-6-carbonyl)-3,3-dimethylpiperazin-2-one]
0.02 to 10	CC(C)Cn1cc(-c2cccc(C#N)c2)c2ccc(C(=O)N3CCNC(=O)C3(C)C)nc21 [Example 117, 3-(6-(2,2-dimethyl-3-oxopiperazine-1-carbonyl)-1-isobutyl-1H-pyrrolo[2,3-b]pyridin-3-yl)benzonitrile]
0.02 to 10	Cc1cccc(-c2cn(CC(C)C)c3nc(C(=O)N4CCNC(=O)C4(C)C)ccc23)c1 [Example 118, 4-(1-isobutyl-3-(m-tolyl)-1H-pyrrolo[2,3-b]pyridine-6-carbonyl)-3,3-dimethylpiperazin-2-one]
0.02 to 10	Cc1cc(N2CCN(C(=O)c3ccc4c(-c5ccc(Cl)c(F)c5)c(C)n(C)c4n3)C(C)(C)C2)nc(C)c1C(=O)O [Example 119, 6-(4-(3-(4-chloro-3-fluorophenyl)-1,2-dimethyl-1H-pyrrolo[2,3-b]pyridine-6-carbonyl)-3,3-dimethylpiperazin-1-yl)-2,4-dimethylnicotinic acid]
0.02 to 10	CC1(C)C(=O)NCCN1C(=O)c1ccc2c(-c3ccc(Cl)c(F)c3)cn(Cc3ccncc3)c2n1 [Example 120, 4-(3-(4-chloro-3-fluorophenyl)-1-(pyridin-4-ylmethyl)-1H-pyrrolo[2,3-b]pyridine-6-carbonyl)-3,3-dimethylpiperazin-2-one]
< 0.02	Cc1cc(N2CCN(C(=O)c3ccc4c(-c5ccc(Cl)c(F)c5)cn(C5(C)CCC5)c4n3)C(C)(C)C2)nc(C)c1C(=O)O [Example 121, 6-(4-(3-(4-chloro-3-fluorophenyl)-1-(1-methylcyclobutyl)-1H-pyrrolo[2,3-b]pyridine-6-carbonyl)-3,3-dimethylpiperazin-1-yl)-2,4-dimethylnicotinic acid]
0.02 to 10	Cc1cc(N2CCN(C(=O)c3ccc4c(-c5ccc(Cl)c(F)c5)cn(C)c4n3)C(C)(C)C2)nc(C)c1C(=O)O [Example 122, 6-(4-(3-(4-chloro-3-fluorophenyl)-1-methyl-1H-pyrrolo[2,3-b]pyridine-6-carbonyl)-3,3-dimethylpiperazin-1-yl)-2,4-dimethylnicotinic acid hydrochloride]
